Laboratory results published in patent publication US8664276B2, “Stilbene analogs and methods of treating cancer” (University of Kentucky Research Foundation, priority 2011, dated 2014).

Tests used:
β-catenin target genes = test: RT-PCR of β-catenin target genes in LS174 cells; type: cell-based; details: RT-PCR
Description: RT-PCR. LS174 cells were treated with DMSO or Wnt inhibitors. After 36 h, RNA was isolated using the RNeasy kit (Qiagen). RT-PCR was performed as described in Zhang et al., Mol Cell Biol 2006, 26, 2055-2064. The following primers were used: β-actin: 5′-CAACCGCGAGAAGATGAC-3′ (SEQ ID NO:01), 5′-AGGAAGGCTGGAAGAGTG-3′ (SEQ ID NO:02); surivivin: 5′-[…]-3′ (SEQ ID NO:03), 5′-[…]-3′ (SEQ ID NO:04); c-Myc: 5′-TGGGCTGTGAGGAGGTTTG-3′ (SEQ ID NO:05), 5′-TATGTGGAGCGGCTTCTCG-3′ (SEQ ID NO:06); Axin2: 5′-[…]-3′ (SEQ ID NO:07), 5′-[…]-3′ (SEQ ID NO:08); TCF4: 5′-[…]-3′ (SEQ ID NO:09), 5′-[…]-3′ (SEQ ID NO:10); pygopus2: 5′-GGCCGGTCTGCAAATGAAG-3′ (SEQ ID NO:11), 5′-TCCACCTCCAGTGCTGTAG-3′ (SEQ ID NO:12); Lgr5: 5′-[…]-3′ (SEQ ID NO:13), 5′-[…]-3′ (SEQ ID NO:14); CD44: 5′-[…]-3′ (SEQ ID NO:15), 5′-[…]-3′ (SEQ ID NO:16); Ki67: 5′-[…]-3′ (SEQ ID NO:17), 5′-[…]-3′ (SEQ ID NO:18).
Cyclin B1 levels were decreased, whereas p21^WAF1/CIP1 levels increased, consistent with the fact that p21^WAF1/CIP1 expression is repressed by c-Myc. β-catenin levels were not affected by resveratrol. Next, the mRNA levels of β-catenin target genes were analyzed using RT-PCR. Expression of survivin, Lgr5, CD44, and c-Myc were decreased in resveratrol-treated cells.

LS174 CRC cells = test: CRC cell proliferation assay (Vi-Cell); type: cell-based
Description: Luciferase and cell proliferation assay. HEK293T cells were transiently transfected in a 12-well plate with 0.2 μg of the Super8xTOPFlash reporter and 0.05 μg of Renilla luciferase reporter. Culture medium was changed after 12 h. After 6 h, cells were treated with DMSO or Wnt inhibitors for 12 h, and then treated with 25 mM LiCl or Wnt conditioned medium. After 12 h, cells were harvested and luciferase activity measured by Dual-luciferase Reporter Assay System (Promega, Madison Wis.). All conditions were done in triplicate and each experiment was carried out at least two times. For cell proliferation assay, CRC cells were treated with DMSO or inhibitors for 2d and 4d. The cell numbers and viability were analyzed by Vi-Cell Cell Viability Analyzer.
Western blot and cell proliferation assay. The activity of fluorinated N,N-dialkylaminostilbenes (FIDAS or FIDAS agents) on Wnt signaling activity in cancer cells were analyzed by Western blot with antibodies against Wnt target genes, such as c-Myc, Axin2. The effects of FlDAS agents on cancer cell growth were analyzed using Cell Viability Analyzer (Beckman Coulter, Vi-Cell XR). These assays have been described previously (see Zhang et al., J. of Med. Chem. 54, 1288-1297 (2011)).

MAT2A = MAT2A (Homo sapiens, UniProt P31153); test: Cell based SAM and SAH analysis in LS174 colon cancer cells (LC-MS/MS); parameters: endogenous in cells; host or cells: LS174T; details: 10 μM of 4r versus 30 μM of resveratrol
Description: SAM and SAH analysis by LC-MS/MS. The LC-MS/MS system consisted of two Varian ProStar 210 LC Pumps coupled with a Varian 1200L triple quadrupole mass spectrometer. The separation was performed on a Hypercarb column (50 mm×2.1 mm, […], Thermo Scientific #35003-052130). Gradient elution started with 98% solution A (0.1% formic acid in water), followed by an increase to 38% solution B (0.1% formic acid in acetonitrile) in 8 min. The column was than flushed with 90% B for 5 min and regenerated with 98% A for another 8 min. The flow rate was 0.25 mL/min. Between the 3rd and 11th min, the eluent was switched to the ion source of the mass spectrometer. The precursor product transitions for SAM (m/z 399→250), SAH (m/z 385→250) and [d-4]-SAH (m/z 389→136) were monitored. The optimized ion source parameters were: Capillary Voltage: 32 V for both SAM and SAH, Collision energy: 9 V and 7V for SAM and SAH, respectively, Needle voltage: 5000 V and the Shield voltage: 600V. Nitrogen was used as the drying gas at a temperature of 300° C. and the interface heater was set to 50° C. The drying gas and nebulizing gas were set to 20 and 50 psi, respectively.
Cell based SAM analysis. […] 5 ul of supernatants were analyzed by LC-MS/MS using a modified method based on a previous publication (see Krijt et al., J Chromatogr B Analyt Technol Biomed Life Sci 877, 2061-6, (2009)). […]

Q: Which results are given for `CN(C)c1ccc(/C=C/c2c(F)cccc2F)cc1` [4r, (E)-4-(2,6-Difluorostyryl)-N,N-dimethylaniline]?
A: transcription of TCF4 genes (β-catenin target genes): inhibited; transcription of Wnt target genes (β-catenin target genes): strongly inhibited; transcription of pygopus2 genes (β-catenin target genes): no significant effects; LS174 cell proliferation at nanomolar concentrations (LS174 CRC cells; 0.1, 0.3 and 1 μM (FIG. 7A)): inhibited LS174 cell proliferation at nanomolar concentrations; CRC cell growth inhibition compared with other compounds (LS174 CRC cells; cell proliferation assay): more potent than compound 4e; MAT2A activity (SAM levels) in LS174 cells versus resveratrol (MAT2A): more significantly than 30 μM of resveratrol
